{"source": "paper PMC3467072", "about": "(Nucleic Acids Research, 2012)", "tested_on": "Rv3066–IR1", "format": "binding, Mycobacterium tuberculosis", "conditions": "1 µM ethidium versus no ethidium", "data": [{"smiles": "CC[n+]1c(-c2ccccc2)c2cc(N)ccc2c2ccc(N)cc21", "note": "[ethidium, ethidium bromide]", "values": [{"measurement": "Weakening of the binding affinity between Rv3066 and IR1", "result": 2.4, "unit": "times"}]}]}
